Common to all, as to type: biochemical
One assay deals with CDK7/cyclin H (Homo sapiens, UniProt P50613). Put plainly: CDK 7 assay (CTD peptide substrate). As to conditions: read-out: Kinase Inhibition pIC50 CDK7-cyclin H (converted). The method in brief: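 Radiometric assay: recombinant human CDK9/cyclin T1 or CDK7/cyclin H with biotinylated CTD heptapeptide-repeat substrate, 100 μM ATP with [γ-32P]ATP, 15 mM MgCl2, MOPS pH 7.2, 45 min at 30 °C. Avidin-captured substrate filtered onto P81; 32P incorporation counted by scintillation.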
Chain of CDK7/cyclin H (P50613 whole entry): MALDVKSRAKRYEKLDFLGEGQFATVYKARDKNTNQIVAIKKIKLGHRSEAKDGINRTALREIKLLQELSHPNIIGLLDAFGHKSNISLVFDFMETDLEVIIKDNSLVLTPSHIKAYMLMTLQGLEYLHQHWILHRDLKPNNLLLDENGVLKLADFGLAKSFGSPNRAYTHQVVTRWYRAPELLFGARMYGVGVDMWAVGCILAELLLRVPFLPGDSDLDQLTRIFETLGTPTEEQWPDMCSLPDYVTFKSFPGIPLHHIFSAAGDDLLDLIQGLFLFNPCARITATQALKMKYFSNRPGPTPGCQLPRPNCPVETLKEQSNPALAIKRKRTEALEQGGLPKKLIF
Chain of CDK7/cyclin H (P51946 whole entry partner): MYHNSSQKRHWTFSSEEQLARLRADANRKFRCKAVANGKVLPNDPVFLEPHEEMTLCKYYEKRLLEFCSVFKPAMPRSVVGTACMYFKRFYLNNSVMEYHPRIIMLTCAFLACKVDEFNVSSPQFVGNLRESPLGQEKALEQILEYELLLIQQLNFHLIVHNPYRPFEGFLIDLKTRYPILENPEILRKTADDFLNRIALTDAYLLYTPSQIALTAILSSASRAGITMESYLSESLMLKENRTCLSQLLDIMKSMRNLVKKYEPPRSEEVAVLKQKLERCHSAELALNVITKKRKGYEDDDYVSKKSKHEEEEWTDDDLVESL

In assay [1] the target is T1, protein kinases (panel of Table 4) (Homo sapiens, UniProt P49840).
T1 construct: other: kinase GSK3a; ATP 100 μM
T1 sequence (P49840 whole entry): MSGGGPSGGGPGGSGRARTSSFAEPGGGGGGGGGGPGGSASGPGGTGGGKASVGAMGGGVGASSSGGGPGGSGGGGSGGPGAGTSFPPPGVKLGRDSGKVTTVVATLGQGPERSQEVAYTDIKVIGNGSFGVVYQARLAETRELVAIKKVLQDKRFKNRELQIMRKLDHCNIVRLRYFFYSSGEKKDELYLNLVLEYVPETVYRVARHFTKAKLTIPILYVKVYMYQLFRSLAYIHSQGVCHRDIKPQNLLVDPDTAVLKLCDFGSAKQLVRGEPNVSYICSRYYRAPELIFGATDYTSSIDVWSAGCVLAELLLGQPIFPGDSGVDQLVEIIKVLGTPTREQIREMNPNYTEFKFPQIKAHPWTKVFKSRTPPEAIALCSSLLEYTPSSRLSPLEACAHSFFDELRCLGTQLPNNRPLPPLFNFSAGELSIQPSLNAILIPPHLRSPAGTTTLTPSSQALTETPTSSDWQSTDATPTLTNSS
Put plainly: Kinase selectivity profile, kinase inhibition IC50 (Table 4), ATP 100 μM. The settings on record: kinase GSK3a. As for the experimental part: (§1) For the assays shown in Table 3, the kinases were assayed at the following ATP concentrations: SAPK4, PKBΔph, GSK3b, SAPK3, CK2, MKK1, PIM2, IKKB, ERK8, and PRK2 at 5 μM; JNK, PRAK, ROCK-II, SAPK2b, CDK2, CHK1, MSK1, CSK, P70S6K, PKA, CK1, MAPKAP-K2, SGK, PKCa, PDK1, NEK 7, and MAPKAP-K3 at 20 μM; SAPK2a, LCK, AMPK, MAPK2, DYRK1a, MAPKAP-K1a, NEK-6, NEK2a, PBK, CAMK-1, SRPK-1, JNK3, MNK2, RSK2, MNK1, PKBB, and SmMLCK at 50 μM. For the assays in Table 4 the ATP concentration was 100 μM throughout.

Assay [2] deals with T2, protein kinases (panel of Table 4) (Homo sapiens, UniProt O14965).
T2 construct: other: kinase Aurora A; ATP 100 μM
T2 sequence (O14965 1-403): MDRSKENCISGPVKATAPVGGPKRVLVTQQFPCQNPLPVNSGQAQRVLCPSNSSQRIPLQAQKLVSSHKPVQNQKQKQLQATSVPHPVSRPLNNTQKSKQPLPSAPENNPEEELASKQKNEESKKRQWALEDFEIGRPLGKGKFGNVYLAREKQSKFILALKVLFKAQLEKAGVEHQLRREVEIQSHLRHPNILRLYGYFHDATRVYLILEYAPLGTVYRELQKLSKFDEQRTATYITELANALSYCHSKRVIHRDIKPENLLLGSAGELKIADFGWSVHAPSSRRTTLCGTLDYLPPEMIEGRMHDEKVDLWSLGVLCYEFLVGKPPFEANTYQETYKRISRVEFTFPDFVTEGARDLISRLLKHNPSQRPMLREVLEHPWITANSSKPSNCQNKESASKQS
The assay is described as above. As to conditions: kinase Aurora A. As for the experimental part: as §1

Assay [3] addresses T3, protein kinases (panel of Table 4) (Homo sapiens, UniProt P11802).
T3 construct: other: kinase CDK4D1; ATP 100 μM
The assay is described as above. The settings on record: kinase CDK4D1. As for the experimental part:
as §1

Assay [4] concerns the target T4, protein kinases (panel of Table 4) (Homo sapiens, UniProt P49841).
T4 construct: other: kinase GSK3b; ATP 100 μM
Described as above. As to conditions: kinase GSK3b. As for the experimental part: as §1

Assay [5] addresses T5, protein kinases (panel of Table 4) (Homo sapiens, UniProt P50750).
T5 construct: other: kinase CDK9T1; ATP 100 μM
The assay is described as above. The settings on record: kinase CDK9T1. As for the experimental part: as §1

Assay [6] deals with T6, protein kinases (panel of Table 4) (Homo sapiens, UniProt P28482).
T6 construct: other: kinase ERK2; ATP 100 μM
T6 sequence (P28482 whole entry): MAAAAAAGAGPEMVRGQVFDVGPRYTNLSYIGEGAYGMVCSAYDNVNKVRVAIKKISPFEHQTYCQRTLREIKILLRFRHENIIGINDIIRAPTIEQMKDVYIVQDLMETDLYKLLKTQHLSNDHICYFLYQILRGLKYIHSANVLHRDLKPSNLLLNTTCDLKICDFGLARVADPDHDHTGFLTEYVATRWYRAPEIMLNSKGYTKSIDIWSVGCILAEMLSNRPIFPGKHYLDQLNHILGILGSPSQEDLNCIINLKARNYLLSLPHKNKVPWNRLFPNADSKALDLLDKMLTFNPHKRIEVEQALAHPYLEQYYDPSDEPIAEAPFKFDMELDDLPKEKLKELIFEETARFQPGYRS
The description is as above. As to conditions: kinase ERK2. As for the experimental part: as §1

The target in assay [7] is T7, protein kinases (panel of Table 4) (Homo sapiens, UniProt P50613).
T7 construct: other: kinase CDK7H; ATP 100 μM
T7 sequence (P50613 whole entry): as the sequence (P50613 whole entry) above
The assay is described as above. As to conditions: kinase CDK7H. As for the experimental part:
as §1

The target of assay [8] is T8, protein kinases (panel of Table 4) (Homo sapiens, UniProt P06239).
T8 construct: other: kinase Lck; ATP 100 μM
T8 sequence (P06239 whole entry): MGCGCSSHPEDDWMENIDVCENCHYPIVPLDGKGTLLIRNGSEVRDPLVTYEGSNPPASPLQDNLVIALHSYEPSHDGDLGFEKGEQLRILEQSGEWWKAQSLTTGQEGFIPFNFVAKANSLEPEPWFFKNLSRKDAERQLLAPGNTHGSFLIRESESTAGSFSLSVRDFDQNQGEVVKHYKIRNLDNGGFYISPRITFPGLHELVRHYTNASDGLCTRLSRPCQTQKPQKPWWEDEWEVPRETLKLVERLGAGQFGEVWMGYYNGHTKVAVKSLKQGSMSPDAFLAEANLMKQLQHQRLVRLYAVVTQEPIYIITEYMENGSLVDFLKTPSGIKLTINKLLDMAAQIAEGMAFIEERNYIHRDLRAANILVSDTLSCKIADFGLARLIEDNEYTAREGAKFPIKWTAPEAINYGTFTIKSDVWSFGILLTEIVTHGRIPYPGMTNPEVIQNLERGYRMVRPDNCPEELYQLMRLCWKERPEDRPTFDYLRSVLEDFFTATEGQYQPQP
The description is as above. The settings on record: kinase Lck. As for the experimental part: as §1

The target in assay [9] is T9, protein kinases (panel of Table 4).
T9 construct: other: kinase CaMKII; ATP 100 μM
Described as above. As to conditions: kinase CaMKII. As for the experimental part:
as §1

Assay [10] deals with T10, protein kinases (panel of Table 4) (Homo sapiens, UniProt Q96GD4).
T10 construct: other: kinase Aurora B; ATP 100 μM
T10 sequence (Q96GD4 whole entry): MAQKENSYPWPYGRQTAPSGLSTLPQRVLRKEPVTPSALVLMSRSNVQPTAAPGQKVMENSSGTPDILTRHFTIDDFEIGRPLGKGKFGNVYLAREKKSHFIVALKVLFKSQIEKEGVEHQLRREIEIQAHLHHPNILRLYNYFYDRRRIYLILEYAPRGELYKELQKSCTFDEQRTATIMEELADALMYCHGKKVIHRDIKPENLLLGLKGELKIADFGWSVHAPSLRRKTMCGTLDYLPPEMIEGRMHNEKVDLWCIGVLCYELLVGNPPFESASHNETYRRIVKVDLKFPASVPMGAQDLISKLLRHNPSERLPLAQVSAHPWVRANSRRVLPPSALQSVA
The assay is described as above. As to conditions: kinase Aurora B. As for the experimental part: as §1

Each structure is given as a SMILES string.

T5 sequence (P50750 whole entry): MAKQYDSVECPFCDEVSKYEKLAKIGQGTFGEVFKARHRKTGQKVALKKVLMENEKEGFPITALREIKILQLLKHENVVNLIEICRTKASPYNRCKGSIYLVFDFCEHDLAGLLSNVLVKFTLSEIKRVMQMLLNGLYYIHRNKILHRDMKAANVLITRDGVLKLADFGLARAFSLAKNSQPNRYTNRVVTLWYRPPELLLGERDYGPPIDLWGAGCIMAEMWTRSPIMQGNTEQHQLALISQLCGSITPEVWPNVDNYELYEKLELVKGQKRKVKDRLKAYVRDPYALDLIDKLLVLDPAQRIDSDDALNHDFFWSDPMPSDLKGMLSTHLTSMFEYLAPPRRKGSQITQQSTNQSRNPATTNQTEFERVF
T4 sequence (P49841 whole entry): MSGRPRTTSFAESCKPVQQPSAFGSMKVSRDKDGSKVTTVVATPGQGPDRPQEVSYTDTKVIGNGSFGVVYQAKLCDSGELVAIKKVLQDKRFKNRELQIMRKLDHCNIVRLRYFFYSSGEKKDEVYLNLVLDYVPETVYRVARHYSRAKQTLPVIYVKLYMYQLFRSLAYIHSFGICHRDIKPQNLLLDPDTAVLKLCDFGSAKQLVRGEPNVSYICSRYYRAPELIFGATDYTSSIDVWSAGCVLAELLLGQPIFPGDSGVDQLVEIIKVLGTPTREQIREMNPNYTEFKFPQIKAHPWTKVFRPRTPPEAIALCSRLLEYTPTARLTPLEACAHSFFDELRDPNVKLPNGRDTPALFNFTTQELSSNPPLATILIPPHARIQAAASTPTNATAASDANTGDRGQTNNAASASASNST
T3 sequence (P11802 whole entry): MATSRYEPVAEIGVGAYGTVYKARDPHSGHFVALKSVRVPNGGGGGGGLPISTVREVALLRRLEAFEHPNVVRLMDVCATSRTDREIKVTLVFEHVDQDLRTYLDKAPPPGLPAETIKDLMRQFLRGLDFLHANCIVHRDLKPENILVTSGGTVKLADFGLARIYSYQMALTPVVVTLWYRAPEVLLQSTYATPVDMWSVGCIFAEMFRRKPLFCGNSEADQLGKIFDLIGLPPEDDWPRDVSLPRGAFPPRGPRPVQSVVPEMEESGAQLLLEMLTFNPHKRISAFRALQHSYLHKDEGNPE

In the case of `CNc1nc(C)c(-c2ccnc(Nc3cccc(S(N)(=O)=O)c3)n2)s1` [Compound 19, 3-[4-(4-Methyl-2-methylamino-thiazol-5-yl)-pyrimidin-2-ylamino]-benzenesulfonamide], the IC50 is 50.1 nM on CDK7/cyclin H; 160 nM in [1]; 40 nM in assay [2]; 17 nM in assay [3]; 170 nM in assay [4]; 3 nM in assay [5]. Further, the IC50 was over 10000 nM in assay [6]; 54 nM in assay [7]; 490 nM in assay [8]; 4300 nM in assay [9]; 20 nM in assay [10].

For the compound `CNc1nc(C)c(-c2ccnc(Nc3cccc(S(C)(=O)=O)c3)n2)s1` [Compound 27, (3-Methanesulfonyl-phenyl)-[4-(4-methyl-2-methylamino-thiazol-5-yl)-pyrimidin-2-yl]-amine], the IC50 on CDK7/cyclin H was 200 nM; in [1] it was 12 nM; in [2] it was 320 nM; in assay [3], 180 nM; in [4] it was 94 nM; in assay [5], 1 nM. In addition, the IC50 was over 10000 nM in assay [6]; 200 nM in assay [7]; 500 nM in assay [8]; over 10000 nM in [9]; 260 nM in [10].

Regarding `CNc1nc(C)c(-c2ccnc(Nc3ccc(C)c(S(=O)(=O)N4CCOCC4)c3)n2)s1` [Compound 37, [4-(4-Methyl-2-methylamino-thiazol-5-yl)-pyrimidin-2-yl]-[4-methyl-3-(morpholine-4-sulfonyl)-phenyl]-amine], the IC50 at CDK7/cyclin H is 3980 nM; in [1], 650 nM; in [2], 1100 nM; in assay [3], over 10000 nM; in assay [4], 1800 nM; in [5], 22 nM. The IC50 is over 10000 nM in assay [6]; 5900 nM in [7]; 4900 nM in [8]; over 10000 nM in [9]; 240 nM in assay [10].

Take `Cc1ccc(Nc2nccc(-c3sc(N)nc3C)n2)cc1S(=O)(=O)N1CCOCC1` [Compound 38, [4-(2-Amino-4-methyl-thiazol-5-yl)-pyrimidin-2-yl]-[4-methyl-3-(morpholine-4-sulfonyl)-phenyl]-amine]: the IC50 is 631 nM on CDK7/cyclin H; 960 nM in [1]; 450 nM in assay [2]; over 10000 nM in assay [3]; 2200 nM in assay [4]; 28 nM in assay [5]. Besides, the IC50 in assay [6] is over 10000 nM; in assay [7] it was 650 nM; in assay [8] it was 2600 nM; in [9] it was 6200 nM; in [10], 140 nM.

Turning to `COCCNS(=O)(=O)c1cccc(Nc2nccc(-c3sc(N)nc3C)n2)c1` [Compound 55, 3-[4-(2-Amino-4-methyl-thiazol-5-yl)-pyrimidin-2-ylamino]-N-(2-methoxy-ethyl)-benzenesulfonamide], the IC50 on CDK7/cyclin H was 631 nM; in [1], 290 nM; in assay [2], 160 nM; in assay [3] it was 1600 nM; in assay [4], 450 nM; in assay [5], 30 nM. Also, the IC50 in assay [6] was over 10000 nM; in assay [7] it was 620 nM; in assay [8], 1800 nM; in assay [9] it was over 10000 nM; in [10] it was 110 nM.

On to `CCNc1nc(C)c(-c2ccnc(Nc3ccc(N4CCNCC4)cc3)n2)s1` [Compound 59, [4-(2-Ethylamino-4-methyl-thiazol-5-yl)-pyrimidin-2-yl]-(4-piperazin-1-yl-phenyl)-amine], for which the IC50 was 126 nM at CDK7/cyclin H; over 10000 nM in [1]; 90 nM in assay [2]; 46 nM in assay [3]; over 10000 nM in [4]; 110 nM in assay [5]. Further, the IC50 in assay [6] was over 10000 nM; in [7], 160 nM; in [8] it was 120 nM; in [9], 1000 nM; in assay [10], 16 nM.

Consider `Cc1nc(CS(=O)(=O)c2cccs2)sc1-c1ccnc(Nc2ccc(N3CCOCC3)cc2)n1` [Compound 138, {4-[4-Methyl-2-(thiophene-2-sulfonylmethyl)-thiazol-5-yl]-pyrimidin-2-yl}-(4-morpholin-4-yl-phenyl)-amine], for which the IC50 on CDK7/cyclin H is 3160 nM.

These data come from patent US20090137572A1, “2-substituted-4-heteroaryl-pyrimidines useful for the treatment of proliferative disorders” (priority 2004, published 2009).
